According to ChEMBL document CHEMBL1136363, “Rational approaches towards reversible inhibition of type B monoamine oxidase. Design and evaluation of a novel 5H-Indeno[1,2-c]pyridazin-5-one derivative” (Bioorg Med Chem Lett, 2003):

Biological target: T1, Amine oxidase [flavin-containing] A (Homo sapiens, UniProt P21397)
T1 sequence (P21397 whole entry): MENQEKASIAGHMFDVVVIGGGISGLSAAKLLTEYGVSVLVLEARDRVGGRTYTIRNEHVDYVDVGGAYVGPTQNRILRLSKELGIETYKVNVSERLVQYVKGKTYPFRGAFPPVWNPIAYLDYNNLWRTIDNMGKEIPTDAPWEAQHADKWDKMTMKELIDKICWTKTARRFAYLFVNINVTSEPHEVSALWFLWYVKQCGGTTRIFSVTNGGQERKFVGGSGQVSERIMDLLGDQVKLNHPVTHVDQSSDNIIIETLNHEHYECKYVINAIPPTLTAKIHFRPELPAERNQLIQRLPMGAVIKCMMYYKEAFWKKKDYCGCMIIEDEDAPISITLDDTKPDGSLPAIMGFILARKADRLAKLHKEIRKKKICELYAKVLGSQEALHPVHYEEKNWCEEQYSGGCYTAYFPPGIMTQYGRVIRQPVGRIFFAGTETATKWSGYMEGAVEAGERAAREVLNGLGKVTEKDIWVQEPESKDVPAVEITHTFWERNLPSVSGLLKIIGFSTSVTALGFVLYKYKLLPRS
Experiment: Inhibitory concentration against Monoamine oxidase A in human placenta.

- Ki: ~100 µM
SMILES: Cc1cc2c(nn1)-c1cc(OCCCC(F)(F)F)ccc1C2=O
